By IC50 is commonly meant the point on the concentration scale where inhibition reaches its midpoint. A high value points to weaker potency.

The source of these data is patent US7977362B2, “Alpha-(N-benzenesulfonamido)cycloalkyl derivatives” (Bristol-Myers Squibb Company, priority 2009, dated 2011).

In one test the test system is Aβ formation (γ-secretase) in H4 cells stably transfected to overexpress the HPLAP-APP fusion protein. Nature of the test: In vitro assay based on the inhibition of Aβ formation in cultured cells. As to conditions: H4 cells overexpressing HPLAP-APP, 18 hrs incubation at 37° C., Aβ in supernatant by time-resolved fluorescence; class symbols. The class given is cell-based, human. The procedure:
Cultured human cell lines, such as HEK293 and H4 cells, which express APP and γ-secretase activity or transfected derivative cell lines that overexpress wild-type APP, mutant APP, or APP fusion proteins will secrete Aβ peptides into the culture media that can be quantified as previously outlined (Dovey, H. et al., J. Neurochem., 76:173-181 (2001)). The incubation of these cultured cells with γ-secretase inhibitors decreases the production of Aβ peptides. For instance, H4 cells stably transfected to overexpress the HPLAP-APP fusion protein described above were grown as above, detached, and adjusted to 2×10^5 cells/ml. 100 μl of the resulting suspension was then added to each well of a 96-well plate. After 4 hrs, the media was removed and replaced with 100 μl serum-free media containing various dilutions of the test compound. Plates were then incubated for 18 hrs at 37° C. and a 100 μl aliquot of the tissue culture supernatant was removed for determination of Aβ levels using time-resolved fluorescence of the homogenous sample as outlined above. Alternately, the other methods described above for Aβ determination could be used. The extent of Aβ inhibition was used to calculate the IC50 value for the test compound.
In the table, an inhibitory concentration (IC50) of less than or equal to 50 nM is represented by +++; between 50 nM and 500 nM by ++; between 500 nM and 5000 nM by +.
With `O=S(=O)(c1ccc(Cl)cc1)N(Cc1ccc(-c2ncon2)cc1)[C@@H]1CCCC[C@H]1CO` [Compound 17, N-(4-(1,2,4-Oxadiazol-3-yl)benzyl)-4-chloro-N-((1R,2R)-2-(hydroxymethyl)cyclohexyl)benzenesulfonamide], the IC50 was no more than 50 nM.

Staying with this test, now noted: H4 cells overexpressing HPLAP-APP, 18 hrs incubation at 37° C., Aβ in supernatant by time-resolved fluorescence; numeric values.
Compound `O=S(=O)(c1ccc(Cl)cc1)N(Cc1cc(F)c(-c2ncon2)cc1F)[C@@H]1CCCC[C@H]1CO` (relative stereo) [Compound 11, 4-Chloro-N-(2,5-difluoro-4-(1,2,4-oxadiazol-3-yl)benzyl)-N-(trans-2-(hydroxymethyl)cyclohexyl)benzenesulfonamide] had an IC50 of 0.32 nM.
Compound `O=S(=O)(c1ccc(Cl)cc1)N(Cc1cc(F)c(-c2ncon2)cc1F)[C@@H]1CCCC[C@H]1CO` [Compound 21, 4-Chloro-N-(2,5-difluoro-4-(1,2,4-oxadiazol-3-yl)benzyl)-N-((1R,2R)-2-(hydroxymethyl)cyclohexyl)benzenesulfonamide] registered an IC50 of 0.15 nM.

The same test, now with this note: Homo sapiens, 18 h, H4 cells overexpressing HPLAP-APP, 18 hrs incubation at 37° C., Aβ in supernatant by time-resolved fluorescence; class symbols.
`O=S(=O)(c1ccc(Cl)cc1)N(Cc1ccc(-c2ncco2)cc1F)[C@@H]1CCCC[C@H]1CF` [Compound 22, 4-Chloro-N-(2-fluoro-4-(oxazol-2-yl)benzyl)-N-((1R,2R)-2-(fluoromethyl)cyclohexyl)benzenesulfonamide] gave a 50% inhibitory concentration (IC50) of no more than 50 nM.
For `O=S(=O)(c1ccc(C(F)(F)F)nc1)N(Cc1ccc(-c2ncco2)c(F)c1F)[C@@H]1CCCC[C@H]1CO` (relative stereo) [Compound 27, N-(2,3-Difluoro-4-(oxazol-2-yl)benzyl)-N-(trans-2-(hydroxymethyl)cyclohexyl)-6-(trifluoromethyl)pyridine-3-sulfonamide], the concentration for half-maximal inhibition (IC50) was no more than 50 nM.
`O=S(=O)(c1ccc(Cl)cc1)N(Cc1ccc(-c2ncco2)cc1)[C@@H]1CCCCC[C@H]1CO` (relative stereo) [Compound 30, 4-Chloro-N-(trans-2-(hydroxymethyl)cycloheptyl)-N-(4-(oxazol-2-yl)benzyl)benzenesulfonamide]: the IC50 was no more than 50 nM.
The same measure, in the same setting: with `O=S(=O)(c1ccc(Cl)s1)N(Cc1ccc(-c2ncon2)cc1)[C@@H]1CCCC[C@H]1CO` (relative stereo) [Compound 12, N-(4-(1,2,4-Oxadiazol-3-yl)benzyl)-5-chloro-N-(trans-2-(hydroxymethyl)cyclohexyl)thiophene-2-sulfonamide] the figure was no more than 50 nM.
In turn, `O=S(=O)(c1ccc(Cl)cc1)N(Cc1ccc(-c2ncon2)cc1)C1(CO)CCCCC1` [Compound 37, N-(4-(1,2,4-Oxadiazol-3-yl)benzyl)-4-chloro-N-(1-(hydroxymethyl)cyclohexyl)benzenesulfonamide] registered an IC50 of 500 to 5000 nM.
The same measure, in the same setting: the value for `O=S(=O)(c1ccc(C(F)(F)F)nc1)N(Cc1cc(F)c(-c2ncon2)cc1F)[C@@H]1CCCC[C@H]1CO` [Compound 26, N-(2,5-Difluoro-4-(1,2,4-oxadiazol-3-yl)benzyl)-N-((1R,2R)-2-(hydroxymethyl)cyclohexyl)-6-(trifluoromethyl)pyridine-3-sulfonamide] was no more than 50 nM.
On the same count and under the same terms, the value for `O=S(=O)(N[C@@H]1CCCC[C@H]1CO)c1ccc(Cl)cc1` (single isomer, unassigned) [Compound 15] was 500 to 5000 nM.
On the same count and under the same terms, the value for `O=S(=O)(N[C@H]1CCCC[C@@H]1CO)c1ccc(Cl)cc1` (single isomer, unassigned) [Compound 14] was 500 to 5000 nM; that for `O=S(=O)(c1ccc(Cl)cc1)N(Cc1ccc(-c2ncon2)cc1F)[C@@H]1CCCC[C@H]1CO` (relative stereo) [Compound 8, 4-Chloro-N-(2-fluoro-4-(1,2,4-oxadiazol-3-yl)benzyl)-N-(trans-2-(hydroxymethyl)cyclohexyl)benzenesulfonamide] was no more than 50 nM; that for `O=S(=O)(c1ccc(Cl)cc1)N(Cc1cc(F)c(-c2ncco2)cc1F)[C@@H]1CCCC[C@H]1CO` [Compound 20, 4-Chloro-N-(2,5-difluoro-4-(oxazol-2-yl)benzyl)-N-((1R,2R)-2-(hydroxymethyl)cyclohexyl)benzenesulfonamide] was no more than 50 nM.
Regarding `N#Cc1cc(F)c(CN([C@@H]2CCCC[C@H]2CO)S(=O)(=O)c2ccc(Cl)cc2)cc1F` (relative stereo) [Compound 10, 4-Chloro-N-(4-cyano-2,5-difluorobenzyl)-N-(trans-2-(hydroxymethyl)cyclohexyl)benzenesulfonamide], the IC50 is no more than 50 nM.
The same measure, in the same setting: the value for `O=S(=O)(c1ccc(Cl)cc1)N(Cc1ccc(-c2ncco2)cc1)C1CC2CCC1C2O` (stereo not drawn) [Compound 34, N-(4-(Oxazol-2-yl)benzyl)-N-(7-hydroxybicyclo[2.2.1]heptan-2-yl)-4-chlorobenzenesulfonamide] was 500 to 5000 nM.
With `O=S(=O)(c1ccc(Cl)cc1)N(Cc1ccc(-c2ncco2)cc1)[C@@H]1CCCC[C@H]1CO` [Compound 18, 4-Chloro-N-((1R,2R)-2-(hydroxymethyl)cyclohexyl)-N-(4-(oxazol-2-yl)benzyl)benzenesulfonamide], the IC50 is no more than 50 nM.
Consider `O=S(=O)(c1ccc(Cl)s1)N(Cc1ccc(-c2ncco2)c(F)c1F)[C@@H]1CCCC[C@H]1CO` (relative stereo) [Compound 13, 5-Chloro-N-(2,3-difluoro-4-(oxazol-2-yl)benzyl)-N-(trans-2-(hydroxymethyl)cyclohexyl)thiophene-2-sulfonamide], for which the IC50 was no more than 50 nM.
Still for that read-out and setting: the value for `O=S(=O)(c1ccc(Cl)cc1)N(Cc1ccc(-c2ncon2)cc1)[C@@H]1CCCCC[C@H]1CO` (relative stereo) [Compound 29, N-(4-(1,2,4-Oxadiazol-3-yl)benzyl)-4-chloro-N-(trans-2-(hydroxymethyl)cycloheptyl)benzenesulfonamide] was no more than 50 nM.
On the same count and under the same terms, with `O=S(=O)(c1ccc(Cl)cc1)N(Cc1ccc(-c2ncco2)cc1F)[C@@H]1CCCC[C@H]1CO` [Compound 19, 4-Chloro-N-(2-fluoro-4-(oxazol-2-yl)benzyl)-N-((1R,2R)-2-(hydroxymethyl)cyclohexyl)benzenesulfonamide] the figure was no more than 50 nM; with `CC(C)(O)[C@@H]1CCCC[C@H]1N(Cc1ccc(-c2ncco2)cc1F)S(=O)(=O)c1ccc(Cl)cc1` [Compound 23, 4-Chloro-N-(2-fluoro-4-(oxazol-2-yl)benzyl)-N-((1R,2R)-2-(2-hydroxypropan-2-yl)cyclohexyl)benzenesulfonamide], 500 to 5000 nM; with `O=S(=O)(c1ccc(Cl)cc1)N(Cc1ccc(-c2ncon2)cc1)[C@@H]1CCCCC[C@@H]1CO` (relative stereo) [Compound 32, N-(4-(1,2,4-Oxadiazol-3-yl)benzyl)-4-chloro-N-(cis-2-(hydroxymethyl)cycloheptyl)benzenesulfonamide], no more than 50 nM.

The test is the same for the next values; noted with them: Homo sapiens, 18 h, H4 cells overexpressing HPLAP-APP, 18 hrs incubation at 37° C., Aβ in supernatant by time-resolved fluorescence; numeric values.
`O=S(=O)(c1ccc(Cl)cc1)N(Cc1ccc(-c2ncco2)cc1)[C@@H]1CCC[C@@H]1CO` (relative stereo) [Compound 3, 4-Chloro-N-(cis-2-(hydroxymethyl)cyclopentyl)-N-(4-(oxazol-2-yl)benzyl)benzenesulfonamide]: the IC50 worked out at 223 nM.
Still for that read-out and setting: with `O=S(=O)(c1ccc(Cl)cc1)N(Cc1ccc(-c2ncco2)cc1)C1(CO)CCCCC1` [Compound 36, 4-Chloro-N-(1-(hydroxymethyl)cyclohexyl)-N-(4-(oxazol-2-yl)benzyl)benzenesulfonamide] the figure was 346 nM; with `O=S(=O)(c1ccc(Cl)cc1)N(Cc1ccc(-c2ncon2)cc1)C1CC2CCC1C2O` (stereo not drawn) [Compound 35, N-(4-(1,2,4-Oxadiazol-3-yl)benzyl)-N-(7-hydroxybicyclo[2.2.1]heptan-2-yl)-4-chlorobenzenesulfonamide], 3240 nM.
